{
  "source": "patent US20260083731A1",
  "about": "“METHODS OF TREATING UVEAL MELANOMA WITH A PKC INHIBITOR” (IDEAYA BIOSCIENCES, INC., priority 2022, published 2026)",
  "key": {"[1]": {"test_system": "uveal melanoma cells harboring GNAQ mutations", "conditions": "by targeting PKC/ERK1/2 and PKC/NF-xB pathways; X. Wu et al. 2012; cited from earlier work"}, "[2]": {"test_system": "ocular tumor (uveal melanoma)", "assay": "Neoadjuvant treatment of uveal melanoma patients, ocular tumor size by ocular ultrasound", "assay_type": "in vivo, human", "conditions": "vs baseline", "description": "Patients can meet all of the following inclusion criteria: • Patient must be at least 18 years of age. • Patient is able to provide written, informed consent before initiation of any study related-procedures, and is able, in the opinion of the investigator, to comply with all the requirements of the study. • Primary diagnosis of uveal melanoma as clinically determined by the treating investigator planned to undergo enucleation (prior plaque brachytherapy is permitted) • Life expectancy >3 months. • Able to safely swallow orally administered medication. • Patients with a prior history of or clinically stable concurrent malignancy are eligible for enrolment provided the malignancy is clinically insignificant, no treatment is required, and the patient is clinically stable. • Patients with a history of squamous or basal cell carcinoma of the skin or carcinoma in the situ of the cervix may be enrolled. • Patients with prostate cancer with an elevated PSA not requiring treatment may be enrolled. • Patient has Eastern Cooperative Oncology Group (ECOG) performance status 0-1 (Karnofsky 70%). • Patient has adequate organ function at screening: • Absolute neutrophil count ≥1500/mm3 without the use of hematopoietic growth factors • Platelet count ≥75,000/mm3 (must be at least 2 weeks post-platelet transfusion and not receiving platelet-stimulating agents) • Haemoglobin ≥8.0 g/dL (must be at least 2 weeks post-red blood cell transfusion and not receiving erythropoietic-stimulating agents) • Total bilirubin ≤1.5× the upper limit of normal (ULN).\nThe presence of any of the following can exclude a patient from being eligible for the study: • Previous treatment with a PKC inhibitor • Have adverse events (AEs) from prior anti-cancer therapy that have not resolved to Grade ≤1 except for alopecia, prior peripheral neuropathy, or anemia. Endocrinopathies resulting from previous immunotherapy are considered part of the medical history and not an AE. • Untreated or symptomatic malignant lesions in the central nervous system (CNS). • Known human immunodeficiency virus (HIV) or acquired immunodeficiency syndrome (AIDS)-related illness. • Active infection requiring therapy (except nail fungus), positive tests for Hepatitis B surface antigen (HBsAg) with detected Hepatitis B virus (HBV) DNA or positive Hepatitis C antibody with detected Hepatitis C virus (HCV) RNA. • Prior gastrectomy or upper bowel removal or any other gastrointestinal disorder or defect e.g., malabsorption disorder such as Crohn's disease or ulcerative colitis, that would interfere with absorption of Compound 1. • Patients who are receiving treatment with medications that cannot be discontinued prior to study entry and that are considered to be any of the following • known to be strong inducers or inhibitors of CYP3A4/5 • known to be substrates of CYP3A4/5, OAT3, OATP1B1, and MATE1/2-K with a narrow therapeutic index • Females who are pregnant or breastfeeding: • Women of childbearing potential must not be considering getting pregnant during the study. • Patients of reproductive potential (male & female) must practice an effective method of contraception during treatment and for 30 days following the last dose of Compound 1. […] If electrolytes are abnormal, they may be corrected, and baseline ECGs should be repeated. • Known to have previously received Compound 1 • Presence of any other condition that may increase the risk associated with study participation or may interfere with the interpretation of study results and, in the opinion of the investigator, would make the patient inappropriate for entry into the study.\nA patient (patient 1) (enrolled in NCT05187884) was treated with Compound 1 (300 mg BID) for 27 days, prior to potential planned interventional procedure comprising enucleation. A 22% ocular tumor reduction in maximal apical height by ocular ultrasound (after about 28 days administration of Compound 1) was observed prior to the planned interventional procedure. […]"}, "[3]": {"test_system": "ocular tumor (uveal melanoma)", "assay": "PET scan of metabolic activity of the ocular tumor (FDG avidity, SUV) in treated patients", "assay_type": "in vivo, human", "procedure": "(§1) A patient (patient 2) (enrolled in NCT02601378) with metastatic disease to liver and peritoneum at the time of diagnosis, and with primary lesion intact (intact ocular tumor) was treated with Compound 1 (300 mg BID).\nA patient (patient 4) (enrolled in NCT05187884) was treated with Compound 1 (300 mg BID) for about 28 days, prior to the planned interventional procedure (e.g., enucleation). A 31% ocular tumor reduction in maximal apical height by ocular ultrasound was observed (after about 28 days administration of Compound 1)."}, "[4]": {"test_system": "ocular tumor (uveal melanoma)", "assay": "Clinical outcome of the affected eye in treated uveal melanoma patients", "assay_type": "in vivo, human", "procedure": "as §1\nA patient (patient 5) (enrolled in NCT05187884) was treated with Compound 1 (300 mg BID) for about 28 days. A 13% ocular tumor reduction in maximal apical height by ocular ultrasound was observed (after about 28 days administration of Compound 1). The patient is continuing on treatment to maximal benefit up to 6 months prior to planned enucleation. The patient was continuing treatment with Compound 1 (300 mg BID) for additional about 3 months (in addition to about 28 days as described above), and a 24% ocular tumor reduction in maximal apical height by ocular ultrasound was observed. […] The patient continues on adjuvant therapy for potentially up to 6 months.\nA patient (patient 6) (enrolled in NCT05187884) was treated with Compound 1 (300 mg BID) for about 56 days, prior to the planned interventional procedure (e.g. enucleation). A 11% ocular tumor reduction in maximal apical height and 23% in Largest Basal Diameter by ocular ultrasound was observed. The patient is continuing on treatment to maximal benefit up to 6 months prior to planned enucleation. The patient continued treatment with Compound 1 (300 mg BID) for about 2 months (in addition to the 56 days as described above), and a 24% ocular tumor reduction in maximal apical height by ocular ultrasound was observed. The patient continued treatment with Compound 1 (300 mg BID) for about 1 month (in addition to about 4 months described above), and a 45% ocular tumor reduction in maximal apical height and 63% reduction in Largest Basal Diameter by ocular ultrasound was observed."}, "[5]": {"conditions": "patient 6, 300 mg BID, about 4 months plus about 1 month"}, "[6]": {"conditions": "patient 6, 300 mg BID, about 56 days"}, "[7]": {"conditions": "patient 7, 300 mg BID, after about 84 days"}, "[8]": {"conditions": "patient 8, 300 mg BID, after about 84 days"}, "[9]": {"conditions": "patient 9, 300 mg BID, after about 56 days"}},
  "data": [
    {"smiles": "CN1CCN(c2nc(C3=C(c4c[nH]c5ccccc45)C(=O)NC3=O)c3ccccc3n2)CC1", "note": "[sotrastaurin]", "values": [
      {"measurement": "inhibition of growth of uveal melanoma cells harboring GNAQ mutations", "setting": "[1]", "value": "selectively inhibit the growth"}
    ]},
    {"smiles": "CC1(N)CCN(c2cccnc2NC(=O)c2nc(-c3ncccc3C(F)(F)F)cnc2N)CC1", "note": "[Compound 1]", "values": [
      {"measurement": "ocular tumor reduction in maximal apical height by ocular ultrasound", "setting": "[2]; patient 1, 300 mg BID, after about 28 days", "value": 22, "unit": "%"},
      {"measurement": "ocular tumor reduction in maximal apical height by ocular ultrasound", "setting": "[2]; patient 3, 300 mg BID, after 28 days", "value": "~10", "unit": "%"},
      {"measurement": "ocular tumor reduction in maximal apical height by ocular ultrasound", "setting": "[2]; patient 4, 300 mg BID, after about 28 days", "value": 31, "unit": "%"},
      {"measurement": "ocular tumor reduction in maximal apical height by ocular ultrasound", "setting": "[2]; patient 5, 300 mg BID, about 28 days plus additional about 3 months", "value": 24, "unit": "%"},
      {"measurement": "ocular tumor reduction in maximal apical height by ocular ultrasound", "setting": "[2]; patient 5, 300 mg BID, after about 28 days", "value": 13, "unit": "%"},
      {"measurement": "ocular tumor reduction in maximal apical height by ocular ultrasound", "setting": "[2]; patient 6, 300 mg BID, 56 days plus about 2 months", "value": 24, "unit": "%"},
      {"measurement": "ocular tumor reduction in maximal apical height by ocular ultrasound", "setting": "[2]; [5]", "value": 45, "unit": "%"},
      {"measurement": "reduction in Largest Basal Diameter by ocular ultrasound", "setting": "[2]; [5]", "value": 63, "unit": "%"},
      {"measurement": "ocular tumor reduction in maximal apical height by ocular ultrasound", "setting": "[2]; [6]", "value": 11, "unit": "%"},
      {"measurement": "reduction in Largest Basal Diameter by ocular ultrasound", "setting": "[2]; [6]", "value": 23, "unit": "%"},
      {"measurement": "ocular tumor reduction in maximal apical height by ocular ultrasound", "setting": "[2]; [7]", "value": 14.3, "unit": "%"},
      {"measurement": "reduction in Largest Basal Diameter by ocular ultrasound", "setting": "[2]; [7]", "value": 15.2, "unit": "%"},
      {"measurement": "ocular tumor reduction in maximal apical height by ocular ultrasound", "setting": "[2]; [8]", "value": 28.5, "unit": "%"},
      {"measurement": "reduction in Largest Basal Diameter by ocular ultrasound", "setting": "[2]; [8]", "value": 19.4, "unit": "%"},
      {"measurement": "ocular tumor reduction in maximal apical height by ocular ultrasound", "setting": "[2]; [9]", "value": 4.0, "unit": "%"},
      {"measurement": "reduction in Largest Basal Diameter by ocular ultrasound", "setting": "[2]; [9]", "value": 2.1, "unit": "%"},
      {"measurement": "reduction in the metabolic activity of the ocular tumor (FDG avidity) by SUV, PET", "setting": "[3]; patient 2 (metastatic disease, intact ocular tumor), 300 mg BID, after about two weeks", "value": 74, "unit": "%"},
      {"measurement": "reduction in the metabolic activity of the ocular tumor (FDG avidity) by SUV, PET", "setting": "[3]; patient 4, 300 mg BID, after about one month", "value": 42, "unit": "%"},
      {"measurement": "patient-reported visual symptoms in affected eye", "setting": "[4]; patient 2, 300 mg BID", "value": "improvement in visual symptoms in affected eye"},
      {"measurement": "eye outcome (plaque brachytherapy enabled instead of planned enucleation)", "setting": "[4]; patient 5, 300 mg BID neoadjuvant", "value": "the eye was preserved"},
      {"measurement": "eye outcome (plaque brachytherapy enabled instead of planned enucleation)", "setting": "[4]; patient 6, 300 mg BID neoadjuvant", "value": "the eye was preserved"}
    ]}
  ]
}
